From patent publication US20220338471A1, “HONEY BEE-SAFE ACARICIDAL COMPOUNDS” (Kansas State University Research Foundation, priority 2019, published 2022)
Several values for one entry are separate records, joined by “and”; a condition that tells them apart may be missing. Equal values may be shown once. Read-outs that look alike come from different tables or passages of the source. Square brackets hold non-standard residues; d marks the D form. Ends that are not written are not given here. Peptide text beside a SMILES is read from it. Oic = O=C(O)[C@@H]1C[C@@H]2CCCC[C@@H]2N1; Phe(4-Cl) = N[C@@H](Cc1ccc(Cl)cc1)C(=O)O; Phe(4-F) = N[C@@H](Cc1ccc(F)cc1)C(=O)O; Hyp = O=C(O)[C@@H]1C[C@@H](O)CN1; β3hF = N[C@H](CC(=O)O)Cc1ccccc1; β3hL = CC(C)C[C@H](N)CC(=O)O; β3hP = O=C(O)C[C@@H]1CCCN1; Aib = CC(C)(N)C(=O)O

What was measured:
[1] = molecular target: T1, varroa mite proctolin receptor (VdProctR) (Varroa destructor, UniProt A0A7T1TE40); experiment: Receptor activity assay: luminescence in cells transiently transfected with varroa mite proctolin receptor; format: cell-based; conditions: for EC50: varroa mite proctolin receptor; for Factor by which potency exceeds that of the corresponding analog with only a single replacement at Y2: 2338 vs 2333, 2337 vs 2329; for Activity at high concentrations compared with proctolin: at 1 μM and 10 μM
T1 sequence (A0A7T1TE40 1-530): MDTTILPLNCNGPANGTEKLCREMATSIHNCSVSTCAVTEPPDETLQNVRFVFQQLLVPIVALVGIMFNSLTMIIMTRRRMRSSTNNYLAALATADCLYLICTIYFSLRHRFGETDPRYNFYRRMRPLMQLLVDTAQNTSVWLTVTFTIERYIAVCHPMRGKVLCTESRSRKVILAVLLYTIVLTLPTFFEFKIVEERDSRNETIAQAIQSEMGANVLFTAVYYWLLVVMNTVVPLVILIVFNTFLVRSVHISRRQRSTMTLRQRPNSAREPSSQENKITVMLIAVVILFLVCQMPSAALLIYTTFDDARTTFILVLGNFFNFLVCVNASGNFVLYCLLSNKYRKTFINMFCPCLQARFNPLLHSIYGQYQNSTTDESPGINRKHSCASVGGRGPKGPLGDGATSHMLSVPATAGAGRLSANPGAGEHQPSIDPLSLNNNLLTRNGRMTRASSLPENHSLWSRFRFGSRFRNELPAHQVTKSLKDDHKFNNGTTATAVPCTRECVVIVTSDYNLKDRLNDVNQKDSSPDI
Protocol: (§1) Approximately thirty hours after transfection, the cells were collected and preincubated with coelenterazine h for the functional assay. The ligands in serial dilutions were loaded into 96-well opaque plates. Cells treated with coelenterazine h were injected into each well on an Orion microplate luminometer (Berthold) luminescent plate reader. The luminescence was measured for 20 seconds immediately after the cell injections. Data analyses were performed to determine the accumulated luminescence value for 20 seconds after extraction of blank-well luminescence. A dose-response curve was generated and the EC50 (50% effective concentration) was calculated in Origin 7 (OriginLab).

[2] = test system: honey bee FMRFamide receptor; experiment: Activity on the honey bee FMRFamide receptor expressed in the same system; format: cell-based; conditions: in words
Protocol: as §1
Honey bee FMRFamide receptor was cloned and expressed in the same system as described for the procotolin receptor. […] Potential effects of the peptidomimetics 2439, 2334, 2336, Ac-2442, and H2O control were tested by injections of the compounds into the thorax of worker honey bees.

[3] = test system: honey bee queen; conditions: injection, 1 μL containing 1 μg; cited from earlier work
[4] = test system: Bombyx mori larval gut; conditions: cited from earlier work
[5] = test system: empty vector transfected cells; experiment: Receptor activity assay, negative control: cells transfected with empty vector; format: cell-based; conditions: 10 μM proctolin
Protocol: as §1, with “Receptor activity assay: […] Approximately” for “Approximately”, “[…] The receptor” for “A dose-response curve”, “also tested with a variety of peptide analogues” for “generated”, “peptidomimetics.” for “the EC50 (50% effective concentration) was calculated in Origin 7 (OriginLab).”

[6] = test system: Varroa mites; experiment: Injection of compound into the body cavity of varroa mites (excretion); format: in vivo, Varroa destructor; conditions: ~5 nL of 200 μM
Excerpt: Micro-glass electrodes were used for the injections using the pressure injection system (Dagan PMI-200). All injected animals were within 5 hr after the collections as described above.

[7] = first set of experiments, EC50 relative to proctolin (0.22 nM)
[8] = first set of experiments, read-out: EC50
[9] = EC50 (nM), second set of peptidomimetics
[10] = second set, EC50 relative to proctolin (14.19 nM)
[11] = EC50 (nM), first set of experiments

Molecule	Fold change [1, 7]	EC50 [1, 8]	EC50 [1, 11]	also measured
CC(C)C[C@@H](CC(=O)N1CCC[C@H]1C(=O)N[C@H](C(=O)O)[C@@H](C)O)NC(=O)[C@H](Cc1ccc(O)cc1)NC(=O)[C@@H](N)CCCNC(=N)N [Analog 2332, RY[β3L]PT] (H-RY[β3hL]PT-OH)	927.27	204 nM		
CC(C)C[C@H](NC(=O)[C@H](Cc1ccc(Cl)cc1)NC(=O)[C@@H](N)CCCNC(=N)N)C(=O)N1CCC[C@H]1C(=O)N[C@H](C(=O)O)[C@@H](C)O [Analog 2440, R[Phe(4-Cl)]LPT] (H-R[Phe(4-Cl)]LPT-OH)				EC50 [1, 9]: 7.03 nM; Fold change [1, 10]: 0.50
CC(C)C[C@H](NC(=O)[C@@H](Cc1ccc(O)cc1)NC(=O)[C@@H](N)CCCNC(=N)N)C(=O)N1C[C@H](O)C[C@H]1C(=O)N[C@H](C(=O)O)[C@@H](C)O [Analog 2337, R[dY]L[HyP]T] (H-R[dY]L[Hyp]T-OH; N-terminus assumed)	163.00		36 nM and 35.9 nM	Factor by which potency exceeds that of the corresponding analog with only a single replacement at Y2 [1]: 4; Efficacy (maximal response) ([1]; in words): full efficacy
CC(C)C[C@H](NC(=O)[C@H](Cc1ccc(O)cc1)NC(=O)[C@H](N)CCCNC(=N)N)C(=O)N1CCC[C@H]1C(=O)N[C@H](C(=O)O)[C@@H](C)O [Analog 2330, [dR]YLPT] (H-[dR]YLPT-OH; N-terminus assumed)	25.55	5.6 nM and 5.62 nM		Activity at high concentrations compared with proctolin [1]: higher than that of proctolin
RYLPT [Proctolin, RYLPT]	1.00		0.22 nM	Activity on the honey bee FMRFamide receptor [2]: no activities; Egg-laying activity of the queen [3]: increased the egg-laying activity of the queen; Concentration required for hindgut contraction ([4]; Bombyx mori larval hindgut): 180 µM; Concentration required in the midgut to slightly reduce leucine uptake ([4]; Bombyx mori larval midgut): 10 µM; Activity on empty vector transfected cells [5]: did not show any activity; EC50 [1, 9]: 14.2 nM; Fold change [1, 10]: 1.00
CC(C)C[C@H](NC(=O)[C@H](Cc1ccc(F)cc1)NC(=O)[C@@H](N)CCCNC(=N)N)C(=O)N1CCC[C@H]1C(=O)N[C@H](C(=O)O)[C@@H](C)O [Analog 2438, R[Phe(4-F)]LPT] (H-R[Phe(4-F)]LPT-OH)				EC50 [1, 9]: 7.55 nM; Fold change [1, 10]: 0.53
CC(C)C[C@H](NC(=O)[C@H](Cc1ccc(O)cc1)NC(=O)[C@@H](N)CCCNC(=N)N)C(=O)N1C[C@H](O)C[C@H]1C(=O)N[C@H](C(=O)O)[C@@H](C)O [Analog 2334, RYL[HyP]T] (H-RYL[Hyp]T-OH; N-terminus assumed)	2.5 and 2.45	0.54 nM		Individuals with immediate excretion of a drop of fecal material through the anus [6]: 3/4; Activity at high concentrations compared with proctolin [1]: higher than that of proctolin; Agonist activity / potency on the Varroa mite proctolin receptor, in words ([1]; in words): strong agonists
CC(C)C[C@H](NC(=O)[C@H](Cc1ccc(O)cc1)NC(=O)[C@@H](N)CCCNC(=N)N)C(=O)N1CCC[C@H]1C(=O)N[C@@H](C(=O)O)[C@H](C)O [Analog 2326, RYLP[dT]] (H-RYLP[dT]-OH; N-terminus assumed)	13600.00	2990 nM		Agonist activity / potency on the Varroa mite proctolin receptor, in words ([1]; in words): inactive agonist
CC(C)C[C@H](NC(=O)C[C@H](Cc1ccccc1)NC(=O)[C@@H](N)CCCNC(=N)N)C(=O)N1C[C@H](O)C[C@H]1C(=O)N[C@H](C(=O)O)[C@@H](C)O [Analog 2338, R[β3F]L[HyP]T] (H-R[β3hF]L[Hyp]T-OH)	119.59		26 nM and 26.3 nM	Factor by which potency exceeds that of the corresponding analog with only a single replacement at Y2 [1]: 8; Efficacy (maximal response) ([1]; in words): full efficacy
CC(C)C[C@H](NC(=O)C[C@H](Cc1ccccc1)NC(=O)[C@@H](N)CCCNC(=N)N)C(=O)N1CCC[C@H]1C(=O)N[C@H](C(=O)O)[C@@H](C)O [Analog 2333, R[β3F]LPT] (H-R[β3hF]LPT-OH)	991.82	218 nM		
RYLPTG [Analog G6, RYLPTG]	2175.00		478 nM	Activity at high concentrations compared with proctolin [1]: higher than that of proctolin
CC(=O)N[C@@H](CCCNC(=N)N)C(=O)N[C@@H](Cc1ccc(Cl)cc1)C(=O)N[C@@H](CC(C)C)C(=O)N1C[C@H](O)C[C@H]1C(=O)N[C@H](C(=O)O)[C@@H](C)O [Ac-2443, Ac-R[Phe(4-Cl)]L[HyP]T] (Ac-R[Phe(4-Cl)]L[Hyp]T-OH)				EC50 [1, 9]: 108 nM; Fold change [1, 10]: 7.64
CC(C)C[C@H](NC(=O)[C@H](Cc1ccc(F)cc1)NC(=O)[C@@H](N)CCCNC(=N)N)C(=O)N1C[C@H](O)C[C@H]1C(=O)N[C@H](C(=O)O)[C@@H](C)O [Analog 2441, R[Phe(4-F)]L[HyP]T] (H-R[Phe(4-F)]L[Hyp]T-OH; N-terminus and C-terminus assumed)				EC50 [1, 9]: 9.93 nM; Activity compared with proctolin, in words ([1]; second set, Y2 phenylalanine variants): higher activity than proctolin; Fold change [1, 10]: 0.70
RYLPGT [Analog G5, RYLPGT]	5259.09		1160 nM	
CC(C)C[C@H](NC(=O)[C@H](Cc1ccc(O)cc1)NC(=O)[C@@H](N)CCCNC(=N)N)C(=O)N1CCC[C@H]1CC(=O)N[C@H](C(=O)O)[C@@H](C)O [Analog 2331, RYL[β3P]T] (H-RYL[β3hP]T-OH; N-terminus assumed)	20.00	4.4 nM		Activity at high concentrations compared with proctolin [1]: higher than that of proctolin
GRYLPT [Analog G1, GRYLPT]	140.36		30.9 nM	
CC(C)C[C@H](NC(=O)[C@@H](Cc1ccc(O)cc1)NC(=O)[C@@H](N)CCCNC(=N)N)C(=O)N1[C@H](C(=O)N[C@H](C(=O)O)[C@@H](C)O)C[C@@H]2CCCC[C@@H]21 [Analog 2340, R[dY]L[Oic]T] (H-R[dY]L[Oic]T-OH; N-terminus assumed)	1262.27		278 nM	Potency compared with 2337 and 2338 ([1]; in words): less potent than 2337 and 2338 by approximately an order of magnitude
RGYLPT [Analog G2, RGYLPT]	72095.45		15900 nM	
CC(C)C[C@@H](NC(=O)[C@H](Cc1ccc(O)cc1)NC(=O)[C@@H](N)CCCNC(=N)N)C(=O)N1CCC[C@H]1C(=O)N[C@H](C(=O)O)[C@@H](C)O [Analog 2328, RY[dL]PT] (H-RY[dL]PT-OH)	413.36	90.9 nM		
CC(=O)N[C@@H](CCCNC(=N)N)C(=O)N[C@@H](Cc1ccc(F)cc1)C(=O)N[C@@H](CC(C)C)C(=O)N1C[C@H](O)C[C@H]1C(=O)N[C@H](C(=O)O)[C@@H](C)O [Ac-2441, Ac-R[Phe(4-F)]L[HyP]T] (Ac-R[Phe(4-F)]L[Hyp]T-OH)				EC50 [1, 9]: 471 nM; Fold change [1, 10]: 33.20
CC(C)C[C@H](NC(=O)[C@H](Cc1ccc(O)cc1)NC(=O)[C@@H](N)CCCNC(=N)N)C(=O)NC(C)(C)C(=O)N[C@H](C(=O)O)[C@@H](C)O [Analog 2335, RYL[Aib]T] (H-RYL[Aib]T-OH)	10.09	2.2 nM and 2.22 nM		
RYGLPT [Analog G3, RYGLPT]	142868.18		31400 nM	
RYLGPT [Analog G4, RYLGPT]	4954.55		1090 nM	
CC(C)C[C@H](NC(=O)[C@H](Cc1ccc(O)cc1)NC(=O)[C@@H](N)CCCNC(=N)N)C(=O)N1CCC[C@@H]1C(=O)N[C@H](C(=O)O)[C@@H](C)O [Analog 2327, RYL[dP]T] (H-RYL[dP]T-OH)	2496.82	549 nM		
CC(C)C[C@H](NC(=O)[C@@H](Cc1ccc(O)cc1)NC(=O)[C@@H](N)CCCNC(=N)N)C(=O)N1CCC[C@H]1C(=O)N[C@H](C(=O)O)[C@@H](C)O [Analog 2329, R[dY]LPT] (H-R[dY]LPT-OH)	672.27	148 nM		
